The values below are quoted from earlier work in patent US20210120811A1, “AQUEOUS CAPSULE SUSPENSION CONCENTRATES CONTAINING A HERBICIDAL SAFENER AND A PESTICIDAL ACTIVE SUBSTANCE” (priority 2018, published 2021).

Molecules are shown by their SMILES.

Consider `CC1(C)CON(Cc2ccc(Cl)cc2Cl)C1=O` [DCPMI, 2-[(2,4-dichlorophenyl)methyl]-4,4′-dimethyl-3-isoxazolidinone], for which the water solubility was 39.5 ppm.
